The values below come from patent publication US20250186490A1, “METHOD OF CHEMICALLY TREATING OR CULTIVATING MACROPHAGES AND THEIR THERAPEUTIC APPLICATIONS IN FIBROTIC DISEASES” (MAPONOS THERAPEUTICS INC., priority 2022, published 2025).

The subject of experiment [1] is Bone Marrow-Derived Macrophages (BMDM). Nature of the experiment: MCP-1 ELISA on culture supernatant of MRCi-treated macrophages cultured under hypoxia. The class given is cell-based, mouse. The conditions noted are these: then hypoxia, vs untreated. As for the experimental part: (§1) In this example, macrophages were isolated and cultivated from the source of murine bone marrow. Eight-week-old male C57/BL6 mice (The Jackson Laboratory, ME, USA) were sacrificed by cervical dislocation. The tibia and femur were separated, and the bone marrow was flushed out using ice-cold PBS solution. Bone marrow cells were then resuspended into single-cell suspension and washed with ice-cold PBS. The cells were treated with Red Blood Cell Lysis Buffer (MilliporeSigma, MA, USA). After the treatment, the cell suspension was washed with ice-cold PBS then seeded with a culture medium.
(§2) The culture medium for the BMDM used in this example includes RPMI1640 (Thermo Fisher Scientific, MA, USA) containing 10% heat-inactivated Fetal Bovine Serum (Gemini Bio, CA, USA), supplied with 100 ng/ml of Recombinant Mouse M-CSF Protein (R&D Systems, MN, USA). Fresh medium was supplied on day three and day five post isolation. On day six of the culturing process, 1 μM of Rotenone (MilliporeSigma, MA, USA) in DMSO solution was added into the culturing medium and incubated for 2 hours with the cells. Then the culture was replaced with fresh medium and was placed into a hypoxia culture chamber with 1% oxygen supply and 5% carbon dioxide at 37° C. On day seven, the cells were ready for downstream treatments. In the untreated group, only vehicle (DMSO) was added as the control. In addition to Rotenone, the following mitochondrial respiratory chain inhibitors (MRCi) were also tested following the same culturing process: Deguclin (10 μM), Piericidin A (0.1 μM), and Capsaicin (5 μM).
To evaluate the enhanced anti-fibrosis ability of the chemically-treated BMDM, ELISA assays were applied using commercially purchased testing kits. In this example, a Mouse MCP-1 ELISA Kit and a Mouse IP-10 ELISA Kit (CXCL10) (both from Abcam plc, Cambridge, UK) were used. Tests using both kits were performed according to the instructions provided by Abcam. […]

For experiment [2] the test system is unchanged. Nature of the experiment: CXCL10 (IP-10) ELISA on culture supernatant of MRCi-treated macrophages cultured under hypoxia. The class given is cell-based, mouse. The conditions noted are these: then hypoxia (1% oxygen), vs untreated. As for the experimental part: as §1
as §2, with “In addition to Rotenone, the following mitochondrial respiratory chain inhibitors (MRCi) were also tested following the same culturing process: Deguclin (10 μM), Piericidin A (0.1 μM), and Capsaicin (5 μM).” left out

With `COc1cc(CNC(=O)CCCC/C=C/C(C)C)ccc1O` [capsaicin, Capsaicin], the MCP-1 level entry in experiment [1] (BMDM treated with 5 μM capsaicin) is recorded as “reduce the MCP-1 level”.

In the case of `C=C(C)[C@H]1Cc2c(ccc3c2O[C@@H]2COc4cc(OC)c(OC)cc4[C@@H]2C3=O)O1` [rotenone, Rotenone], in experiment [2] (BMDM treated with 1 μM rotenone for 2 hours), the “CXCL 10 level” value is reported as “increased CXCL 10 level”. Further, in experiment [1] (BMDM treated with 1 μM rotenone), the MCP-1 level entry is listed as “reduce the MCP-1 level”.

`COc1cc2c(cc1OC)[C@@H]1C(=O)c3ccc4c(c3O[C@@H]1CO2)C=CC(C)(C)O4` [deguelin, Deguelin]: in experiment [2] (BMDM treated with 10 μM deguelin for 2 hours), the “CXCL 10 level” value is reported as “increased CXCL 10 level”.

As for `C/C=C(\C)[C@H](O)[C@H](C)/C=C(C)/C=C/C/C(C)=C/Cc1nc(OC)c(OC)c(O)c1C` [Piericidin A], the MCP-1 level result in experiment [1] (BMDM treated with 0.1 μM Piericidin A) is given as “reduce the MCP-1 level”.
